Reference: US9670227B2, “Thienopyrimidine derivatives, a process for their preparation and pharmaceutical compositions containing them” (LES LABORATOIRES SERVIER, priority 2013, dated 2017)
Read-outs that look alike come from different tables or passages of the source.

Target: Mcl-1 protein (UniProtKB primary accession number: Q07820) (Homo sapiens, UniProt Q07820)
Test: Inhibition of Mcl-1 by fluorescence polarisation, Method 1
Assay type: binding
Conditions: read-out: IC50 (M) Mcl-1 FP
Method: The relative binding potency of each compound was determined via Fluorescence Polarisation (FP).
An 11 point serial dilution of each compound was prepared in DMSO and 2 μl transferred into flat bottomed, low binding, 384-well plate (final DMSO concentration 5%). 38 μl of buffer (10 mM 4-(2-hydroxyethyl)-1-piperazineethanesulfonic acid [HEPES], 150 mM NaCl, 0.05% Tween 20, pH 7.4), containing the Fluorescein labelled ligand (final concentration 1 nM) and Mcl-1 protein (final concentration 5 nM) was then added.

[1] = fluorescence polarisation test, Method 1, or Method 2 where the value is underlined (underlining not visible)
[2] = fluorescence polarisation, Method 1, or Method 2
[3] = fluorescence polarisation test, Method 2 values are underlined in the patent (underlining not visible here)

Mcl-1 protein, sequence (Q07820 whole entry): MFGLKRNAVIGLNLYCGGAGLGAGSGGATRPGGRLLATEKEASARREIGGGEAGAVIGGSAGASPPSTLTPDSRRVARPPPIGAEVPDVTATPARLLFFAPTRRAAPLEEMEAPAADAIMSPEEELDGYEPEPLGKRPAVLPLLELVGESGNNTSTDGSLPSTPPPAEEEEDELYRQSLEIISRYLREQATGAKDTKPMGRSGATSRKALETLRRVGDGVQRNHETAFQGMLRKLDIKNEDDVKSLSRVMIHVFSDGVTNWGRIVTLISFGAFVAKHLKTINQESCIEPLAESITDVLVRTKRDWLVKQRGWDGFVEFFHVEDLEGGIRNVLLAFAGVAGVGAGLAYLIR

## COCC(=O)OC(C)OC(=O)[C@@H](Cc1ccccc1OCc1ccnc(-c2ccccc2OC)n1)Oc1ncnc2sc(-c3ccc(F)cc3)c(-c3ccc(OCCN4CCN(C)CC4)c(Cl)c3C)c12 (stereo partly drawn) [Example 864, 1-[(methoxyacetyl)oxy]ethyl (2R)-2-{[5-{3-chloro-2-methyl-4-[2-(4-methylpiperazin-1-yl)ethoxy]phenyl}-6-(4-fluorophenyl)thieno[2,3-d]pyrimidin-4-yl]oxy}-3-(2-{[2-(2-methoxyphenyl)pyrimidin-4-yl]methoxy}phenyl)propanoate]
[1]
  IC50: 2.7e-08 M

## COc1ccccc1-c1nccc(COc2ccccc2CC(Oc2ncnc3sc(-c4ccc(F)cc4)c(-c4ccc(OCCN5CCN(C)CC5)c(Cl)c4C)c23)C(=O)OC(C)OC(=O)C(C)(C)C)n1 [Example 859, 1-{[(2R)-2-{[(5Sa)-5-{3-chloro-2-methyl-4-[2-(4-methylpiperazin-1-yl)ethoxy]phenyl}-6-(4-fluorophenyl)thieno[2,3-d]pyrimidin-4-yl]oxy}-3-(2-{[2-(2-methoxyphenyl)pyrimidin-4-yl]methoxy}phenyl)propanoyl]oxy}ethyl 2,2-dimethylpropanoate]
[1]
  IC50: 1.13e-06 M

## Cc1c(-c2c(-c3ccc(F)cc3)sc3ncnc(OC(Cc4ccccc4)C(=O)O)c23)ccc(OCCN2CCN(C)CC2)c1Cl [Example 498, (2R)-2-{[(5Sa)-5-{3-chloro-2-methyl-4-[2-(4-methylpiperazin-1-yl)ethoxy]phenyl}-6-(4-fluorophenyl)thieno[2,3-d]pyrimidin-4-yl]oxy}-3-phenylpropanoic acid]
[2]
  IC50: 7.4e-08 M

## COc1ccccc1CC(Oc1ncnc2sc(-c3ccco3)c(-c3ccc(OCCN4CCN(C)CC4)c(Cl)c3C)c12)C(=O)O [Example 209, (2R)-2-{[(5Sa)-5-{3-chloro-2-methyl-4-[2-(4-methylpiperazin-1-yl)ethoxy]phenyl}-6-(furan-2-yl)thieno[2,3-d]pyrimidin-4-yl]oxy}-3-(2-methoxyphenyl)propanoic acid]
[3]
  IC50: 9.8e-09 M

## [2H]C([2H])([2H])Oc1ccccc1-c1nccc(COc2ccccc2CC(Oc2ncnc3sc(-c4ccc(F)cc4)c(-c4ccc(OCCN5CCN(C)CC5)c(Cl)c4C)c23)C(=O)OCC)n1 [Example 839, ethyl (2R)-2-{[(5Sa)-5-{3-chloro-2-methyl-4-[2-(4-methylpiperazin-1-yl)ethoxy]phenyl}-6-(4-fluorophenyl)thieno[2,3-d]pyrimidin-4-yl]oxy}-3-{2-[(2-{2-[(^2H3)methyloxy]phenyl}pyrimidin-4-yl)methoxy]phenyl}propanoate]
[1]
  IC50: 6.91e-07 M

## COc1ccccc1CC(Oc1ncnc2sc(-c3ccsc3)c(-c3ccc(O)c(Cl)c3C)c12)C(=O)O [Example 715, (2R)-2-{[(5Sa)-5-(3-chloro-4-hydroxy-2-methylphenyl)-6-(thiophen-3-yl)thieno[2,3-d]pyrimidin-4-yl]oxy}-3-(2-methoxyphenyl)propanoic acid]
[2]
  IC50: 1.6e-09 M

## Cc1c(-c2c(-c3ccc(F)cc3)sc3ncnc(OC(Cc4ccccc4OCc4ccnc(-c5ccccc5F)n4)C(=O)O)c23)ccc(OCCN(C)C2CC2)c1Cl [Example 748, (2R)-2-{[(5Sa)-5-(3-chloro-4-{2-[cyclopropyl(methyl)amino]ethoxy}-2-methylphenyl)-6-(4-fluorophenyl)thieno[2,3-d]pyrimidin-4-yl]oxy}-3-(2-{[2-(2-fluorophenyl)pyrimidin-4-yl]methoxy}phenyl)propanoic acid]
[2]
  IC50: 1.21e-08 M

## COCCOc1ccccc1-c1nccc(COc2ccccc2CC(Oc2ncnc3sc(-c4ccc(F)cc4)c(-c4ccc(OCCN(C)C)c(Cl)c4C)c23)C(=O)OCC(=O)N(C)C)n1 [Example 819, 2-(dimethylamino)-2-oxoethyl (2R)-2-{[(5Sa)-5-{3-chloro-4-[2-(dimethylamino)ethoxy]-2-methylphenyl}-6-(4-fluorophenyl)thieno[2,3-d]pyrimidin-4-yl]oxy}-3-[2-({2-[2-(2-methoxyethoxy)phenyl]pyrimidin-4-yl}methoxy)phenyl]propanoate]
[1]
  IC50: 1.57e-07 M

## COc1ccccc1CC(Oc1ncnc2sc(-c3cccc(OC(F)(F)F)c3F)c(-c3ccc(OCCN4CCN(C)CC4)c(Cl)c3C)c12)C(=O)O [Example 562, (2R)-2-[((5Sa)-5-{3-chloro-2-methyl-4-[2-(4-methylpiperazin-1-yl)ethoxy]phenyl}-6-[2-fluoro-3-(trifluoromethoxy)phenyl]thieno[2,3-d]pyrimidin-4-yl)oxy]-3-(2-methoxyphenyl)propanoic acid]
[2]
  IC50: 5.1e-07 M

## CC#Cc1sc2ncnc(OC(Cc3ccccc3OCc3ccnn3CCCC)C(=O)O)c2c1-c1ccc(OCCN2CCN(C)CC2)c(Cl)c1C [Example 490, (2R)-3-{2-[(1-butyl-1H-pyrazol-5-yl)methoxy]phenyl}-2-{[(5Sa)-5-{3-chloro-2-methyl-4-[2-(4-methylpiperazin-1-yl)ethoxy]phenyl}-6-(prop-1-yn-1-yl)thieno[2,3-d]pyrimidin-4-yl]oxy}propanoic acid]
[2]
  IC50: 3e-09 M

## Cc1c(-c2c(C#CC3CC3)sc3ncnc(OC(Cc4ccccc4)C(=O)O)c23)ccc(OCCN2CCN(C)CC2)c1Cl [Example 520, (2R)-2-{[(5Sa)-5-{3-chloro-2-methyl-4-[2-(4-methylpiperazin-1-yl)ethoxy]phenyl}-6-(cyclopropylethynyl)thieno[2,3-d]pyrimidin-4-yl]oxy}-3-phenylpropanoic acid]
[2]
  IC50: 4.1e-08 M

## CCc1sc2ncnc(OC(Cc3ccccc3)C(=O)O)c2c1-c1ccc(O)cc1C [Example 447, (2R)-2-{[6-ethyl-(5Sa)-5-(4-hydroxy-2-methylphenyl)thieno[2,3-d]pyrimidin-4-yl]oxy}-3-phenylpropanoic acid]
[2]
  IC50: 6.8e-08 M

## Cc1c(-c2c(-c3ccco3)sc3ncnc(O[C@@H](C(=O)O)[C@@H](O)c4ccccc4)c23)ccc(OCCN2CCN(C)CC2)c1Cl (single isomer, unassigned) [Example 343]
[3]
  IC50: 2.5e-07 M

## COc1ccccc1C[C@@H](Oc1ncnc2sc(-c3cccc(F)c3F)c(-c3ccc(C#CCN4CCN(C)CC4)c(Cl)c3C)c12)C(=O)O (single isomer, unassigned) [Example 716]
[2]
  IC50: 1.5e-06 M

## CC#Cc1sc2ncnc(OC(Cc3ccccc3)C(=O)O)c2c1-c1ccc(OCCN2CCN(C)CC2)c(Cl)c1C [Example 519, (2R)-2-{[(5Sa)-5-{3-chloro-2-methyl-4-[2-(4-methylpiperazin-1-yl)ethoxy]phenyl}-6-(prop-1-yn-1-yl)thieno[2,3-d]pyrimidin-4-yl]oxy}-3-phenylpropanoic acid]
[2]
  IC50: 2.3e-08 M

## COc1ccccc1-c1nccc(COc2ccccc2CC(Oc2ncnc3sc(C#CCN4CCOCC4)c(-c4ccc(OCCN5CCN(C)CC5)c(Cl)c4C)c23)C(=O)O)n1 [Example 786, (2R)-2-[((5Sa)-5-{3-chloro-2-methyl-4-[2-(4-methylpiperazin-1-yl)ethoxy]phenyl}-6-[3-(morpholin-4-yl)prop-1-yn-1-yl]thieno[2,3-d]pyrimidin-4-yl)oxy]-3-(2-{[2-(2-methoxyphenyl)pyrimidin-4-yl]methoxy}phenyl)propanoic acid]
[2]
  IC50: 4.95e-09 M

## Cc1c(-c2c(-c3ccc(OCc4ccn(C)n4)cc3)sc3ncnc(OC(Cc4ccccc4OCC(F)(F)F)C(=O)O)c23)ccc(OCCN2CCN(C)CC2)c1Cl [Example 780, (2R)-2-[((5Sa)-5-{3-chloro-2-methyl-4-[2-(4-methylpiperazin-1-yl)ethoxy]phenyl}-6-{4-[(1-methyl-1H-pyrazol-3-yl)methoxy]phenyl}thieno[2,3-d]pyrimidin-4-yl)oxy]-3-[2-(2,2,2-trifluoroethoxy)phenyl]propanoic acid]
[2]
  IC50: 7.26e-09 M
